How the values were obtained:
DIPGX37 [1] = H3.3 K27M diffuse intrinsic pontine glioma line; assay: maximal growth inhibition (yFin) relative to DMSO / staurosporine; higher = more efficacious
How it was run: (§1)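 A pin tool was used to add a 10-point threefold dilution series (mean top concentration 35 μM), in triplicate, to patient-derived pHGG/DIPG cell lines and astrocyte controls seeded on 384-well plates coated with 1% Geltrex. After 7 days at 37 °C and 5% CO2 (3 days for iAstro), CellTiter-Glo luminescence was log2-transformed, normalised on each plate to % activity relative to negative (solvent) and positive control wells, and pooled. EC50 and maximal response (yFin) were read from the three- or four-parameter log-logistic fit with the lowest AICc.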

SUDIPGIV [2] = diffuse intrinsic pontine glioma line; assay: as above
How it was run: as §1

HGGX6 [3] = H3.3 G34R paediatric high-grade glioma line; assay: as above
How it was run: as §1

SUDIPGXXI [4] = diffuse intrinsic pontine glioma line; assay: as above
How it was run: as §1

SUDIPGXVII [5] = diffuse intrinsic pontine glioma line; assay: as above
How it was run: as §1

HGGX42 [6] = H3.3 G34R paediatric high-grade glioma line; assay: as above
How it was run: as §1

HGGX2 [7] = paediatric high-grade glioma line; assay: as above
How it was run: as §1

HGGX39 [8] = paediatric high-grade glioma line; assay: as above
How it was run: as §1

DIPGX9 [9] = diffuse intrinsic pontine glioma line; assay: as above
How it was run: as §1

SUDIPGXIII [10] = diffuse intrinsic pontine glioma line; assay: as above
How it was run: as §1

SUDIPGVI [11] = diffuse intrinsic pontine glioma line; assay: as above
How it was run: as §1

SUDIPGXIX [12] = diffuse intrinsic pontine glioma line; assay: as above
How it was run: as §1

DIPGX29 [13] = H3.3 K27M diffuse intrinsic pontine glioma line; assay: as above
How it was run: as §1

DIPGX37 [14] = assay: area under dose-response curve of % growth inhibition (log2 RLU vs DMSO / staurosporine), 1e-11 to 1e-4 M (% x log10 M); higher = more growth inhibition
How it was run: (§2)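 A 10-point threefold dilution series, mean top concentration 35 μM, was applied in triplicate to patient-derived pHGG/DIPG lines and astrocytes on 1% Geltrex-coated 384-well plates for 7 days (3 days for iAstro) at 37 °C, 5% CO2. Per-plate % activity between solvent and positive controls was calculated from log2-transformed CellTiter-Glo luminescence. Area under the curve followed from the trapezoid rule on a log-logistic fit, or on a smoothing spline when the sigmoid fit failed.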

SUDIPGIV [15] = assay: as above
How it was run: as §2

HGGX6 [16] = assay: as above
How it was run: as §2

SUDIPGXXI [17] = assay: as above
How it was run: as §2

SUDIPGXVII [18] = assay: as above
How it was run: as §2

HGGX42 [19] = assay: as above
How it was run: as §2

HGGX2 [20] = assay: as above
How it was run: as §2

iAstro = astrocyte control; assay: as above
How it was run: as §2

HABS = astrocyte control; assay: as above
How it was run: as §2

HGGX39 [21] = assay: as above
How it was run: as §2

DIPGX7 = H3.3 K27M diffuse intrinsic pontine glioma line; assay: as above
How it was run: as §2

DIPGX9 [22] = assay: as above
How it was run: as §2

SUDIPGXIII [23] = assay: as above
How it was run: as §2

SUDIPGVI [24] = assay: as above
How it was run: as §2

SUDIPGXIX [25] = assay: as above
How it was run: as §2

DIPGX29 [26] = assay: as above
How it was run: as §2

Row | SMILES | maximal growth inhibition (DIPGX37 [1]) [%] | maximal growth inhibition (SUDIPGIV [2]) [%] | maximal growth inhibition (HGGX6 [3]) [%] | maximal growth inhibition (SUDIPGXXI [4]) [%] | maximal growth inhibition (SUDIPGXVII [5]) [%] | maximal growth inhibition (HGGX42 [6]) [%] | maximal growth inhibition (HGGX2 [7]) [%] | maximal growth inhibition (HGGX39 [8]) [%] | maximal growth inhibition (DIPGX9 [9]) [%] | maximal growth inhibition (SUDIPGXIII [10]) [%] | maximal growth inhibition (SUDIPGVI [11]) [%] | maximal growth inhibition (SUDIPGXIX [12]) [%] | maximal growth inhibition (DIPGX29 [13]) [%] | area under dose-response curve (DIPGX37 [14]) | area under dose-response curve (SUDIPGIV [15]) | area under dose-response curve (HGGX6 [16]) | area under dose-response curve (SUDIPGXXI [17]) | area under dose-response curve (SUDIPGXVII [18]) | area under dose-response curve (HGGX42 [19]) | area under dose-response curve (HGGX2 [20]) | area under dose-response curve (iAstro) | area under dose-response curve (HABS) | area under dose-response curve (HGGX39 [21]) | area under dose-response curve (DIPGX7) | area under dose-response curve (DIPGX9 [22]) | area under dose-response curve (SUDIPGXIII [23]) | area under dose-response curve (SUDIPGVI [24]) | area under dose-response curve (SUDIPGXIX [25]) | area under dose-response curve (DIPGX29 [26])
1 | CC(=O)OC[C@H]1O[C@@H]([S-])[C@H](OC(C)=O)[C@@H](OC(C)=O)[C@@H]1OC(C)=O.CCP(CC)CC.[Au+] [AURANOFIN] | 90.9 | 117 | 92.2 | 122 | 117 | 116 | 110 | 107 | 118 | 113 | 114 | 118 | 93.1 | 219 | 198 | 218 | 323 | 169 | 243 | 248 | 196 | 146 | 165 | 228 | 209 | 168 | 202 | 219 | 232
2 | COC(=O)[C@]12CCC(C)(C)C[C@H]1[C@H]1C(=O)C=C3[C@@]4(C)C=C(C#N)C(=O)C(C)(C)[C@@H]4CC[C@@]3(C)[C@]1(C)CC2 [BARDOXOLONE METHYL] | 88.6 | 122 | 86.8 | 103 | 109 | 111 | 104 | 92.1 | 107 | 97 | 96.1 | 124 | 87.1 | 185 | 201 | 168 | 231 | 173 | 203 | 181 | 189 | 174 | 185 | 221 | 185 | 155 | 155 | 207 | 189
3 | CC(C)(C)OC(=O)Nc1ccc(-c2cc(C(=O)NCCCCCCC(=O)NO)no2)cc1 [BML-281] | 38.1 | 76 | 52.9 | 104 | 58.3 | 33.3 | 64 | 84 | 97.6 | 39 | 71.8 | 85.3 | 55.1 | 56.6 | 104 | 55.5 | 212 | 63.9 | 49 | 92 | 61.4 | 83.1 | 94.4 | 111 | 146 | 54.5 | 65.9 | 87.7 | 85.5
4 | CC(=O)c1ccc2c(c1)c1cc(C(C)=O)ccc1n2CCNC(C)C [CBL-0137] | 101 | 96.8 | 88.7 | 113 | 97.5 | 91.8 | 83.4 | 104 | 106 | 96.5 | 92.3 | 98 | 94.2 | 199 | 156 | 122 | 277 | 129 | 154 | 134 | 57.3 | 155 | 148 | 137 | 218 | 123 | 109 | 223 | 135
5 | O=C(Nc1ccc(Nc2nccc(Nc3cc(C4CCCC4)[nH]n3)n2)cc1)Nc1cccc(C(F)(F)F)c1 [CD532] | 98.2 | 112 | 87.6 | 109 | 100 | 102 | 111 | 104 | 115 | 103 | 111 | 112 | 94.4 | 238 | 276 | 202 | 352 | 247 | 271 | 246 | 213 | 174 | 200 | 282 | 305 | 235 | 272 | 283 | 221
6 | NC1CCC(Nc2cc(-c3cccc(NCc4cccc(F)c4)n3)c(Cl)cn2)CC1 (centres undefined) [CDK9-IN-2] | 77.5 | 88.1 | 67.1 | 95.9 | 87 | 76.7 | 95.4 | 99.7 | 88.7 | 94.9 | 71.3 | 86.9 | 71.8 | 214 | 243 | 199 | 326 | 232 | 230 | 181 | 135 | 180 | 172 | 249 | 278 | 167 | 209 | 254 | 206
